The values below are quoted from earlier work in patent US11406658B2, “Composition comprising glycyrrhizin and cosmetic and pharmaceutical uses thereof” (ATG 20 S.R.L., priority 2018, dated 2022).

For data set [1] the following is noted: background art.
For data set [2] the following is noted: oral administration; background art.

Regarding `CC1(C)[C@@H](O[C@H]2OC(C(=O)[O-])[C@@H](O)C(O)C2O[C@H]2OC(C(=O)[O-])[C@@H](O)C(O)C2O)CC[C@]2(C)[C@H]3C(=O)C=C4[C@@H]5C[C@@](C)(C(=O)O)CC[C@]5(C)CC[C@@]4(C)[C@]3(C)CC[C@@H]12.[K+].[K+]` (stereo partly shown) [potassium salt, dipotassium glycyrrhizate], the solubility entry in data set [1] is “water-soluble”.
Consider `CC1(C)[C@@H](O[C@H]2O[C@H](C(=O)O)[C@@H](O)[C@H](O)[C@H]2O[C@@H]2O[C@H](C(=O)O)[C@@H](O)[C@H](O)[C@H]2O)CC[C@]2(C)[C@H]3C(=O)C=C4[C@@H]5C[C@@](C)(C(=O)O)CC[C@]5(C)CC[C@@]4(C)[C@]3(C)CC[C@@H]12.N` [(mono)ammonium salt, (mono) ammonium glycyrrhizate], for which the solubility result in data set [1] is “soluble in diluted acidic or basic solutions”.
For the molecule `CC1(C)[C@@H](O[C@H]2OC(C(=O)O)[C@@H](O)C(O)C2O[C@H]2OC(C(=O)O)[C@@H](O)C(O)C2O)CC[C@]2(C)[C@H]3C(=O)C=C4[C@@H]5C[C@@](C)(C(=O)O)CC[C@]5(C)CC[C@@]4(C)[C@]3(C)CC[C@@H]12` (stereo partly shown) [Glycyrrhizin], the bioavailability entry in data set [2] is “extremely low”. Also, in data set [1], the solubility result was “not particularly water-soluble”.
